Results from patent US20260337153A1, “IONIZABLE AMINE LIPIDS” (Intellia Therapeutics, Inc., priority 2023, published 2026).
“And” between values parts separate entries of the source, which are not always exact repeats. Equal values may be shown once.

Assay: LNP average particle size and polydispersity by dynamic light scattering
Format: physicochemical
Conditions: LNP with 50% ionizable lipid, 38% cholesterol, 9% DSPC, 3% C13 Ether (LNP #1, Compound 53: 3% PEG2K-DMG instead); sgRNA:mRNA 1:2
Experimental: Dynamic Light Scattering (“DLS”) is used to characterize the polydispersity index (“pdi” or “PDI”) and size of the LNPs of the present disclosure. DLS measures the scattering of light that results from subjecting a sample to a light source. PDI, as determined from DLS measurements, represents the distribution of particle size (around the mean particle size) in a population, with a perfectly uniform population having a PDI of zero.
LNP compositions are analyzed for average particle size, polydispersity index (pdi), total RNA content, encapsulation efficiency of RNA, and zeta potential. LNP compositions may be further characterized by lipid analysis, AF4-MALS, NTA, and/or cryo-EM.
Average particle size and polydispersity are measured by dynamic light scattering (DLS) using a Malvern Zetasizer DLS instrument. LNP samples were diluted with PBS buffer prior to being measured by DLS. Z-average diameter (“Z-avg”) which is an intensity-based measurement of average particle size was reported along with number average diameter (“number mean”) and PDI. A Malvern Zetasizer instrument is also used to measure the zeta potential of the LNP. Samples are diluted 1:17 (50 μL into 800 μL) in 0.1×PBS, pH 7.4 prior to measurement.
In vivo editing efficiency for materials delivered with formulations including various amine lipid (or ionizable lipid) compounds in Experiments 1 through 14 as described in Tables 3 and 4 was assessed. Editing was measured using G000534 (SEQ ID NO: 5) which targets the rat TTR gene. Lipids described above were assessed for efficacy through in vivo editing experiments. LNPs were formulated at a 1:2 w/w ratio of sgRNA (SEQ ID NO: 5) and Cas9 mRNA (SEQ ID NO: 3). In Experiments 1 through 13, lipid components of the LNP are formulated in a molar ratio of 50% ionizable lipid, 38% cholesterol, 9% DSPC, and 3% PEG2K-DMG. In Experiment 14, lipid components of the LNP are formulated in a molar ratio of 50% ionizable lipid, 38% cholesterol, 9% DSPC, and 3% C13 Ether. The final LNPs used in different in vivo editing experiments were characterized to determine the encapsulation efficiency (% E), polydispersity index (PDI), and average particle size (Z-avg and number mean) according to the analytical methods provided above. The pKa values of each of the following ionizable lipids were also measured to be in the range of about 5.8 to about 7.6.
In vivo editing efficiency for materials delivered with formulations including various combinations of amine lipid (or ionizable lipid) and PEG lipid compounds was assessed as described in Tables 5 and 6. Editing was measured using G000534 (SEQ ID NO: 5) which targets the rat TTR gene. Lipids described above were assessed for efficacy through in vivo editing experiments. LNPs were formulated at a 1:2 w/w ratio of sgRNA (SEQ ID NO: 5) and Cas9 mRNA (SEQ ID NO:3). Lipid components of the LNP are formulated in a molar ratio of 50% ionizable lipid, 38% cholesterol, 9% DSPC, and 3% of various PEG lipids (e.g., PEG2K-DMG, C13 Ether, C14 Ether). The final LNPs used in different in vivo editing experiments were characterized to determine the encapsulation efficiency (% E), polydispersity index (PDI), and average particle size (Z-avg and number mean) according to the analytical methods provided above. The pKa values of each of the following ionizable lipids were also measured to be in the range of about 5.8 to about 7.6.
In vivo editing efficiency for materials delivered with formulations including various amine lipid (or ionizable lipid) compounds as described in Tables 7 and 8 was assessed. Editing was measured using G000534 (SEQ ID NO: 5) which targets the rat TTR gene. Lipids described above were assessed for efficacy through in vivo editing experiments. LNPs were formulated at a 1:2 w/w ratio of sgRNA (SEQ ID NO: 5) and Cas9 mRNA (SEQ ID NO: 3). Lipid components of the LNP were formulated in a molar ratio of 50% ionizable lipid, 38% cholesterol, 9% DSPC, and 3% C13 Ether. […]

Row | Number mean (average particle size) [nm] | PDI (polydispersity index) | Z-avg (average particle size) [nm] | SMILES
1 | 60 | 0.01 | 73 | CCCCCCCCC(CCCCCCCC)OC(=O)CCCC(=O)OCC(COC(=O)CCCC(=O)OC(CCCCCCCC)CCCCCCCC)COC(=O)OCCCN1CCCC1 [Compound 33, di(heptadecan-9-yl) O,O′-(2-((((3-(pyrrolidin-1-yl)propoxy)carbonyl)oxy)methyl)propane-1,3-diyl) diglutarate]

Same assay, conditions: Table 3, Experiment 14; LNP with 3% C13 Ether; sgRNA:mRNA 1:2

Row | Number mean [nm] | PDI | Z-avg [nm] | SMILES
2 | 61 | 0.032 | 69 | CCCCCCCCC(CCCCCCCC)OC(=O)CCCC(=O)OCC(COC(=O)CCCC(=O)OC(CCCCCCCC)CCCCCCCC)COC(=O)CCCN(C)C [Compound 34, O,O′-(2-(((4-(dimethylamino)butanoyl)oxy)methyl)propane-1,3-diyl) di(heptadecan-9-yl) diglutarate]
3 | 67 | 0.019 | 76 | CCCCCCCCC(CCCCCCCC)OC(=O)CCCC(=O)OCC(COC(=O)CCCC(=O)OC(CCCCCCCC)CCCCCCCC)OC(=O)NCCN(CC)CC [Compound 35, O,O′-(2-(((2-(diethylamino)ethyl)carbamoyl)oxy)propane-1,3-diyl) di(heptadecan-9-yl) diglutarate]
4 | 48 | 0.062 | 57 | CCCCCCCCC(CCCCCCCC)C(=O)OCC(COC(=O)NCCN(CC)CC)COC(=O)C(CCCCCCCC)CCCCCCCC [Compound 40, 2-((((2-(diethylamino)ethyl)carbamoyl)oxy)methyl)propane-1,3-diyl bis(2-octyldecanoate)]

Same assay, conditions: Table 3, Experiments 1-13; LNP 50% ionizable lipid, 38% cholesterol, 9% DSPC, 3% PEG2K-DMG; sgRNA:mRNA 1:2

Row | SMILES | Number mean | PDI | Z-avg
5 | CCCCCCCCOC(CCC(=O)OCC(COC(=O)CCC(OCCCCCCCC)OCCCCCCCC)COC(=O)NCCN(CC)CC)OCCCCCCCC [Compound 22, 2-((((2-(diethylamino)ethyl)carbamoyl)oxy)methyl)propane-1,3-diyl bis(4,4-bis(octyloxy)butanoate)] | 77 nm | 0 | 82 nm
6 | CCCCC/C=C\C/C=C\CCCCCCCCC(COC(=O)CCCCCC(=O)OC(CCCCCCCC)CCCCCCCC)COC(=O)NCCN(CC)CC (stereo not drawn) [Compound 23, 1-((11Z,14Z)-2-((((2-(diethylamino)ethyl)carbamoyl)oxy)methyl)icosa-11,14-dien-1-yl) 7-(heptadecan-9-yl) heptanedioate] | 86 nm and 74 nm | 0.02 | 90 nm and 81 nm
7 | CCCCCCCCC(CCCCCCCC)OC(=O)CCCC(=O)OCC(COC(=O)CCCC(=O)OC(CCCCCCCC)CCCCCCCC)COC(=O)NCCN1CCCCC1 [Compound 28, di(heptadecan-9-yl) O,O′-(2-((((2-(piperidin-1-yl)ethyl)carbamoyl)oxy)methyl)propane-1,3-diyl) diglutarate] | 60 nm | 0.022 | 65 nm
8 | CCCCCCCCC(CCCCCCCC)OC(=O)CCCC(=O)OCC(COC(=O)CCCC(=O)OC(CCCCCCCC)CCCCCCCC)COC(=O)NCCN1CCCC1 [Compound 29, di(heptadecan-9-yl) O,O′-(2-((((2-(pyrrolidin-1-yl)ethyl)carbamoyl)oxy)methyl)propane-1,3-diyl) diglutarate] | 67 nm | 0.023 | 74 nm
9 | CCCCCCCCC(CCCCCCCC)OC(=O)CCCC(=O)OCC(COC(=O)CCCC(=O)OC(CCCCCCCC)CCCCCCCC)COC(=O)OCCCN(C)CC [Compound 30, O,O′-(2-((((3-(ethyl(methyl)amino)propoxy)carbonyl)oxy)methyl)propane-1,3-diyl) di(heptadecan-9-yl) diglutarate] | 64 nm | 0.02 | 71 nm
10 | CCCCCCCCC(CCCCCCCC)OC(=O)CCCC(=O)OCC(COC(=O)CCCC(=O)OC(CCCCCCCC)CCCCCCCC)COC(=O)OCCCN(C)C [Compound 31, O,O′-(2-((((3-(dimethylamino)propoxy)carbonyl)oxy)methyl)propane-1,3-diyl) di(heptadecan-9-yl) diglutarate] | 59 nm | 0.003 | 64 nm
11 | CCCCCCCCC(CCCCCCCC)OC(=O)CCCC(=O)OCC(COC(=O)CCCC(=O)OC(CCCCCCCC)CCCCCCCC)COC(=O)OCCCN1CCCCC1 [Compound 32, di(heptadecan-9-yl) O,O′-(2-((((3-(piperidin-1-yl)propoxy)carbonyl)oxy)methyl)propane-1,3-diyl) diglutarate] | 59 nm | 0.008 | 63 nm
12 | CCCCCCCCC(CCCCCCCC)OC(=O)CCCC(=O)OCC(COC(=O)CCCC(=O)OC(CCCCCCCC)CCCCCCCC)COC(=O)OCCCN1CCCC1 [Compound 33, di(heptadecan-9-yl) O,O′-(2-((((3-(pyrrolidin-1-yl)propoxy)carbonyl)oxy)methyl)propane-1,3-diyl) diglutarate] | 66 nm | 0.023 | 71 nm

Continued, values first:

Row | Number mean | PDI | Z-avg | SMILES
13 | 87 nm | 0.056 | 103 nm | CCCCCCCCC(CCCCCCCC)OC(=O)CCCC(=O)OCC(C)(COC(=O)CCCC(=O)OC(CCCCCCCC)CCCCCCCC)COC(=O)NCCN(CC)CC [Compound 36, O,O′-(2-((((2-(diethylamino)ethyl)carbamoyl)oxy)methyl)-2-methylpropane-1,3-diyl) di(heptadecan-9-yl) diglutarate]
14 | 71 nm | 0.014 | 78 nm | CCCCCCC(CCCCCC)OC(=O)CCCC(=O)OCC(COC(=O)CCCC(=O)OC(CCCCCC)CCCCCC)COC(=O)NCCN(CC)CC [Compound 37, O,O′-(2-((((2-(diethylamino)ethyl)carbamoyl)oxy)methyl)propane-1,3-diyl) di(tridecan-7-yl) diglutarate]
15 | 75 nm | 0.05 | 83 nm | CCCCCCCCCCCC(=O)OCC(COC(=O)CCC(OCCCCCCCC)OCCCCCCCC)COC(=O)OCCCN(CC)CC (stereo not drawn) [Compound 41, 3-((4,4-bis(octyloxy)butanoyl)oxy)-2-((((3-(diethylamino)propoxy)carbonyl)oxy)methyl)propyl Dodecanoate]
16 | 75 nm | 0.04 | 85 nm | CCCCCCCCOC(CCC(=O)OCC(COC(=O)CC(CCCC)CCCCCC)COC(=O)OCCCN(CC)CC)OCCCCCCCC (stereo not drawn) [Compound 43, 3-((4,4-bis(octyloxy)butanoyl)oxy)-2-((((3-(diethylamino)propoxy)carbonyl)oxy)methyl)propyl 3-butylnonanoate]
17 | 81 nm | 0.02 | 87 nm | CCCCCCCCOC(CCC(=O)OCC(COC(=O)NCCN(CC)CC)COC(=O)C(CCCC)CCCCCC)OCCCCCCCC (stereo not drawn) [Compound 48, 3-((4,4-bis(octyloxy)butanoyl)oxy)-2-((((2-(diethylamino)ethyl)carbamoyl)oxy)methyl)propyl 2-butyloctanoate]
18 | 87 nm | 0.01 | 91 nm | CCCCC/C=C\C/C=C\CCCCCCCC(=O)OCC(COC(=O)CCCC(=O)OC(CCCCCCCC)CCCCCCCC)COC(=O)N(C)CCN(CC)CC (stereo not drawn) [Compound 49, 3-(((2-(diethylamino)ethyl)(methyl)carbamoyl)oxy)-2-((((9Z,12Z)-octadeca-9,12-dienoyl)oxy)methyl)propyl heptadecan-9-yl Glutarate]
19 | 66 nm | 0.02 | 74 nm | CCCCC/C=C\C/C=C\CCCCCCCC(=O)OCC(COC(=O)CCCC(=O)OC(CCCCCCCC)CCCCCCCC)COC(=O)NCCN1CCCCCC1 (stereo not drawn) [Compound 50, 3-(((2-(azepan-1-yl)ethyl)carbamoyl)oxy)-2-((((9Z,12Z)-octadeca-9,12-dienoyl)oxy)methyl)propyl heptadecan-9-yl Glutarate]
